Assay results from PMC5078989, “Targeted inhibition of the COP9 signalosome for treatment of cancer” (Nature Communications, 2016).

System: panel of cancer cell lines
Assay: Cell viability (CellTiter-Glo) dose-response across cancer cell line panel;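 as to EC50: after 72 h compound incubation with CellTiter-Glo ATP readout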
Format: cell-based, human
Conditions: for EC50: Homo sapiens
Text: Next, we explored the effect of CSN5 inhibition on the viability of cancer cells. To obtain a comprehensive picture, we generated dose–response curves with a CSN5 inhibitor across more than 500 cancer cell lines in a previously described standardized setting[47] (Supplementary Data 1).
A standardized CellTiter-Glo Assay (Promega #G7570) based on the quantification of ATP was applied according to the manufacturer's protocol to measure the amount of viable cells in culture. In brief, cells were seeded into 384-well plates at optimal density for each cell line. After 4 h, compounds were added at different concentrations in growth medium and incubated for another 72 h in a humidifying chamber at 37 °C and 5% CO2. […] EC50 values were calculated from the plot of percentage of inhibition versus inhibitor concentration using the nonlinear regression analysis software Origin 7.5SR6 (OriginLab Corp.).

## COCc1ccccc1NCc1ccc([C@H]2[C@@H](O)CCCc3cncn32)c(-c2ccccc2Cl)c1 [CSN5i-2, (5S,6S)-5-(2′-chloro-5-(((2-(methoxymethyl)phenyl)amino)methyl)-[1,1′-biphenyl]-2-yl)-6,7,8,9-tetrahydro-5H-imidazo[1,5-a]azepin-6-ol]
59M
  AMAX: -68.225
  EC50: 2650 nM
A101D
  AMAX: -76.7398
  EC50: 372 nM
A172
  AMAX: -55.6841
A549
  AMAX: -65.9191
A2780
  AMAX: -85.074
ABC-1
  AMAX: -77.8125
AM-38
  AMAX: -77.876
AU565
  AMAX: -62.6343
AsPC-1
  AMAX: -59.6849
BFTC-909
  AMAX: -64.2004
BICR 6
  AMAX: -79.1425
  EC50: 1110 nM
BICR 16
  AMAX: -84.074
  EC50: 1020 nM
Calu-6
  AMAX: -81.2731
FaDu
  AMAX: -81.7331
  EC50: 550 nM
GP2d
  AMAX: -35.7458
  EC50: > 30000 nM
HARA
  AMAX: -63.4816
  EC50: 9030 nM
HCC1143
  AMAX: -57.1762
HCC1187
  AMAX: -75.8993
HCC1954
  AMAX: -88.6962
HD-MY-Z
  AMAX: -86.2175
  EC50: 531 nM
HEC-151
  AMAX: -65.4188
HEL
  AMAX: -95.954
HL-60
  AMAX: -90.6278
HLC-1
  AMAX: -73.9563
HLE
  AMAX: -90.9124
HLF
  AMAX: -62.5035
HSC-4
  AMAX: -75.9669
HT-29
  AMAX: -64.9206
HUP-T4
  AMAX: -81.3707
Hep3B
  AMAX: -76.5642
92.1
  EC50: 3880 nM
639-V
  EC50: 723 nM
697
  EC50: 477 nM
769-P
  EC50: 13900 nM
786-0, 786-O
  EC50: 1050 nM
1321-N1, 1321N1
  EC50: 3680 nM
8505C
  EC50: 829 nM
A4/Fuk
  EC50: 120 nM
A 172, A172
  EC50: 13400 nM
A204, A-204
  EC50: 206 nM
A498, A-498
  EC50: 1400 nM
A549, A549
  EC50: 1410 nM
A673, A-673
  EC50: 431 nM
A704, A-704
  EC50: 1640 nM
A2058, A2058
  EC50: 2050 nM
A2780, A2780
  EC50: 279 nM
A-375, A-375
  EC50: 690 nM
ABC-1, ABC-1
  EC50: 485 nM
ACC-MESO-1, ACC-MESO-1
  EC50: 2400 nM
AM-38, AM-38
  EC50: 983 nM
AML-193
  EC50: 3210 nM
AN3-CA, AN3 CA
  EC50: 2230 nM
ASPC1, AsPC-1
  EC50: 4740 nM
AU565, AU565
  EC50: 1350 nM
BC-3C
  EC50: 2030 nM
BEN
  EC50: 12500 nM
BFTC-909, BFTC-909
  EC50: 7580 nM
BICR 31
  EC50: 1210 nM
BT-16, BT-16
  EC50: 3280 nM
BT-549, BT-549
  EC50: 296 nM
BXPC-3, BxPC-3
  EC50: 6030 nM
C3A
  EC50: > 30000 nM
C32, C32
  EC50: 830 nM
CAKI-1, Caki-1
  EC50: 845 nM
CAKI-2, Caki-2
  EC50: 3040 nM
CAL-12T
  EC50: 474 nM
CAL-27, CAL 27
  EC50: 713 nM
CAL-29
  EC50: 5690 nM
CAL-54, CAL-54
  EC50: 1170 nM
CAL-85-1, CAL-85-1
  EC50: 7990 nM
CAL-120, CAL-120
  EC50: 6810 nM
CAL-148, CAL-148
  EC50: 1680 nM
CAMA-1, CAMA-1
  EC50: 20500 nM
CAPAN-1, Capan-1
  EC50: 643 nM
CAS-1
  EC50: 705 nM
CCRF-HSB-2, CCRF-HSB-2
  EC50: 150 nM
CEM/C1, CEMC1
  EC50: 343 nM
CFPAC-1, CFPAC-1
  EC50: 3540 nM
CL-14
  EC50: > 30000 nM
CL-34
  EC50: 3880 nM
CMK
  EC50: 1800 nM
CMK-86, CMK-86
  EC50: 1720 nM
COLO 201, COLO 201
  EC50: 1120 nM
COLO 205, COLO 205
  EC50: 12500 nM
COLO 320, COLO-320
  EC50: 1400 nM
COLO 699, COLO-699
  EC50: 3050 nM
COLO 704, COLO-704
  EC50: 634 nM
COLO-678, COLO-678
  EC50: 3410 nM
COLO-679, COLO-679
  EC50: 492 nM
COLO-741, COLO 741
  EC50: 1340 nM
COLO-829, COLO 829
  EC50: 10700 nM
COR-L23, COR-L23
  EC50: 11800 nM
COR-L105, COR-L105
  EC50: 4940 nM
COV362, COV362
  EC50: 8840 nM
COV644
  EC50: 1040 nM
CW-2, CW-2
  EC50: 4950 nM
Calu-1, Calu-1
  EC50: 13000 nM
Calu-6, Calu-6
  EC50: 539 nM
ChaGo-K-1, ChaGo-K-1
  EC50: 967 nM
Ci-1, CI-1
  EC50: 193 nM
DAN-G
  EC50: 13400 nM
DB
  EC50: 290 nM
DLD-1, DLD-1
  EC50: > 30000 nM
DMS-53, DMS 53
  EC50: 8760 nM
DMS-153, DMS 153
  EC50: 405 nM
DMS-273, DMS 273
  EC50: 691 nM
DU-4475, DU4475
  EC50: 218 nM
Daoy
  EC50: 542 nM
Detroit 562, Detroit 562
  EC50: 4000 nM
EBC-1, EBC-1
  EC50: 5630 nM
EOL1, EOL-1
  EC50: 262 nM
Fu97, FU97
  EC50: 942 nM
G-401, G-401
  EC50: 402 nM
G-402, G-402
  EC50: 4100 nM
GAMG
  EC50: 2920 nM
GB-1, GB-1
  EC50: 3900 nM
GDM-1, GDM-1
  EC50: 162 nM
GI-1, GI-1
  EC50: 3270 nM
H4
  EC50: 790 nM
HCC15, HCC-15
  EC50: 5200 nM
HCC44, HCC-44
  EC50: 2380 nM
HCC70, HCC70
  EC50: 2350 nM
HCC78, HCC-78
  EC50: 2290 nM
HCC95, HCC-95
  EC50: 18400 nM
HCC827, HCC827
  EC50: 1780 nM
HCC1143, HCC1143
  EC50: 6070 nM
HCC1187, HCC1187
  EC50: 7500 nM
HCC1588, HCC-1588
  EC50: 421 nM
HCC1806, HCC1806
  EC50: 5450 nM
HCC1954, HCC1954
  EC50: 2180 nM
HCC4006, HCC4006
  EC50: 1730 nM
HCC-56
  EC50: 413 nM
HCC-1359
  EC50: 1870 nM
HCC-1833
  EC50: 3410 nM
HCT-15, HCT-15
  EC50: 1360 nM
